From US9850203B2, “Autotaxin inhibitor compounds” (PharmAkea, Inc., priority 2013, dated 2017)

Biological target: human autotaxin (ATX) (Homo sapiens (Human), UniProt Q13822)
Assay: Human Autotaxin Assay
Type: biochemical
Conditions: concentrated conditioned media from Hep3B cells; LPC substrate, choline release
In short: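 Autotaxin source: Hep3B conditioned medium concentrated 20-fold, preincubated with compound 15 min at 37° C in lyso-PLD buffer (100 mM Tris pH 9, 500 mM NaCl, 5 mM MgCl2, 5 mM CaCl2, 0.05% Triton X-100, ±0.2% fatty-acid-free HSA). 100 uM LPC (14:0) then added, 1.5-3 hours at 37° C; choline release measured.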

IC50	SMILES
≤ 500 nM	Cc1c(Sc2cccc(C(=O)O)c2F)c2ccc(Cl)c(F)c2n1CCN1CC2(CC2)c2ccccc21 [Compound 2-74, Sodium 3-((6-chloro-7-fluoro-2-methyl-1-(2-(spiro[cyclopropane-1,3′-indolin]-1′-yl)ethyl)-1H-indol-3-yl)thio)-2-fluorobenzoate]
≤ 500 nM	Cc1c(Sc2cccc(C(=O)O)c2F)c2ccc(Cl)c(F)c2n1CCN1CC2(CCC2)c2ccccc21 [Compound 2-75, 3-((6-Chloro-7-fluoro-2-methyl-1-(2-(spiro[cyclobutane-1,3′-indolin]-1′-yl)ethyl)-1H-indol-3-yl)thio)-2-fluorobenzoic acid]
≤ 500 nM	Cc1c(Sc2cccc(C(=O)O)c2F)c2ccc(Cl)c(F)c2n1CC(=O)N1CC2(CC2)c2cc(F)ccc21 [Compound 3-23, 3-[6-Chloro-7-fluoro-1-[2-(5′-fluorospiro[cyclopropane-1,3′-indoline]-1′-yl)-2-oxo-ethyl]-2-methyl-indol-3-yl]sulfanyl-2-fluoro-benzoic acid]
≤ 500 nM	Cc1c(Sc2cccc(C(=O)O)c2F)c2ccc(Cl)c(F)c2n1CC(=O)N1CC2(CCC2)c2c(F)cccc21 [Compound 3-96, 3-((6-Chloro-7-fluoro-1-(2-(4′-fluorospiro[cyclobutane-1,3′-indolin]-1′-yl)-2-oxoethyl)-2-methyl-1H-indol-3-yl)thio)-2-fluorobenzoic acid]
≤ 500 nM	Cc1c(Sc2cccc(C(=O)O)n2)c2ccc(Cl)c(F)c2n1CC(=O)N1CC2(CCC2)c2c(F)cccc21 [Compound 3-104, 6-((6-Chloro-7-fluoro-1-(2-(4′-fluorospiro[cyclobutane-1,3′-indolin]-1′-yl)-2-oxoethyl)-2-methyl-1H-indol-3-yl)thio)picolinic acid]
≤ 500 nM	Cc1c(Sc2cccc(C(=O)O)c2F)c2ccc(Cl)c(F)c2n1CC(=O)N1CC2(CCC2)c2ccccc21 [Compound 3-220, 3-((6-Chloro-7-fluoro-2-methyl-1-(2-oxo-2-(spiro[cyclobutane-1,3′-indolin]-1′-yl)ethyl)-1H-indol-3-yl)thio)-2-fluorobenzoic acid]
≤ 500 nM	Cc1c(Sc2cccc(C(=O)O)c2F)c2ccc(Cl)c(F)c2n1CC(=O)N1CC2(CCCC2)c2ccccc21 [Compound 3-221, 3-((6-Chloro-7-fluoro-2-methyl-1-(2-oxo-2-(spiro[cyclopentane-1,3′-indolin]-1′-yl)ethyl)-1H-indol-3-yl)thio)-2-fluorobenzoic acid]
≤ 500 nM	O=C(O)c1cccc(Sc2c(C3CC3)n(CC(=O)N3CCc4ccccc43)c3c(F)c(Cl)ccc23)c1F [Compound 4-29, Sodium 3-((6-chloro-2-cyclopropyl-7-fluoro-1-(2-(indolin-1-yl)-2-oxoethyl)-1H-indol-3-yl)thio)-2-fluorobenzoate]
≤ 500 nM	O=C(O)c1cccc(Sc2c(Cl)n(CC(=O)N3CC4(CCC4)c4ccccc43)c3c(F)c(Cl)ccc23)c1F [Compound 4-121, Sodium 3-((2,6-dichloro-7-fluoro-1-(2-oxo-2-(spiro[cyclobutane-1,3′-indolin]-1′-yl)ethyl)-1H-indol-3-yl)thio)-2-fluorobenzoate]
≤ 500 nM	O=C(O)c1cccc(Sc2c(Cl)n(CCN3CC4(CCC4)c4ccccc43)c3c(F)c(Cl)ccc23)c1F [Compound 5-1, Sodium 3-((2,6-dichloro-7-fluoro-1-(2-(spiro[cyclobutane-1,3′-indolin]-1′-yl)ethyl)-1H-indol-3-yl)thio)-2-fluorobenzoate]
≤ 500 nM	O=C(O)c1cccc(Sc2c(Cl)n(CCN3CC4(CC4)c4ccccc43)c3c(F)c(Cl)ccc23)c1F [Compound 5-2, Sodium 3-((2,6-dichloro-7-fluoro-1-(2-(spiro[cyclopropane-1,3′-indolin]-1′-yl)ethyl)-1H-indol-3-yl)thio)-2-fluorobenzoate]
≤ 500 nM	O=C(O)c1cccc(Sc2c(C3CC3)n(CCN3CCc4ccccc43)c3c(F)c(Cl)ccc23)c1F [Compound 5-4, Sodium 3-((6-chloro-2-cyclopropyl-7-fluoro-1-(2-(indolin-1-yl)ethyl)-1H-indol-3-yl)thio)-2-fluorobenzoate]
500 to 3000 nM	CON(C)C(=O)Cn1c(C2CC2)c(Sc2cccc(C(=O)O)c2F)c2ccc(Cl)c(F)c21 [Compound 5-7, Sodium 3-((6-chloro-2-cyclopropyl-7-fluoro-1-(2-(methoxy(methyl)amino)-2-oxoethyl)-1H-indol-3-yl)thio)-2-fluorobenzoate]
